Results reported in publication PMC3092583, “Enzyme Mechanism and Slow-Onset Inhibition of Plasmodium falciparum Enoyl-Acyl Carrier Protein Reductase by an Inorganic Complex” (2011).
Read-outs that look alike come from different tables or passages of the source.

Tests used:
[1] = molecular target: T1, P. falciparum ENR (PfENR), enoyl-acyl carrier protein reductase (Plasmodium falciparum, UniProt Q9BH77); experiment: biochemical; type: binding
T1 construct: gene FabI
T1 sequence (Q9BH77 22-432): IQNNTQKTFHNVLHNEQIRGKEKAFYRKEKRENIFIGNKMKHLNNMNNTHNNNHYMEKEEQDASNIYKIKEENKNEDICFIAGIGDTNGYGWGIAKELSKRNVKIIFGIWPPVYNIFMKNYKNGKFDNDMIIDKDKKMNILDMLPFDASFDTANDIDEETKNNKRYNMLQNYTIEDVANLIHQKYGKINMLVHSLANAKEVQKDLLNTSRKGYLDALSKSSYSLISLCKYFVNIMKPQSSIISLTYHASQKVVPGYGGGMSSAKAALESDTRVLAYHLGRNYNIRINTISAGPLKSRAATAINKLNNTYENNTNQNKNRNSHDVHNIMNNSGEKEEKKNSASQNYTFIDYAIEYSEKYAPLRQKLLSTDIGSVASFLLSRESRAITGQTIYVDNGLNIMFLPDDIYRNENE

[2] = molecular target: T1, P. falciparum ENR (PfENR), enoyl-acyl carrier protein reductase; experiment: biochemical; type: binding; remark: listed apart in the source
[3] = substrate: C/C=C/C(=O)SCCNC(=O)CCNC(=O)[C@H](O)C(C)(C)COP(=O)(O)OP(=O)(O)OC[C@H]1O[C@@H](n2cnc3c(N)ncnc32)[C@H](O)[C@@H]1OP(=O)(O)O; experiment: steady-state initial velocity kinetics (KM) with purified enzyme; no fluorescence change with free enzyme; type: biochemical, Plasmodium falciparum; conditions: NADH proposed to bind to a modified form of the enzyme (F) after NAD+ release

## NC(=O)C1=CN([C@@H]2O[C@H](COP(=O)(O)OP(=O)(O)OC[C@H]3O[C@@H](n4cnc5c(N)ncnc54)[C@H](O)[C@@H]3O)[C@@H](O)[C@H]2O)C=CC1 [NADH]
[1]
  Kd: 398 µM

## CCCC(=O)SCCNC(=O)CCNC(=O)[C@H](O)C(C)(C)COP(=O)(O)OP(=O)(O)OC[C@H]1O[C@@H](n2cnc3c(N)ncnc32)[C@H](O)[C@@H]1OP(=O)(O)O [butyryl-CoA]
[2]
  Kd: 1.15 mM

B1: P. falciparum ENR (PfENR), enoyl-acyl carrier protein reductase (Plasmodium falciparum) (protein)
chain: IQNNTQKTFHNVLHNEQIRGKEKAFYRKEKRENIFIGNKMKHLNNMNNTHNNNHYMEKEEQDASNIYKIKEENKNEDICFIAGIGDTNGYGWGIAKELSKRNVKIIFGIWPPVYNIFMKNYKNGKFDNDMIIDKDKKMNILDMLPFDASFDTANDIDEETKNNKRYNMLQNYTIEDVANLIHQKYGKINMLVHSLANAKEVQKDLLNTSRKGYLDALSKSSYSLISLCKYFVNIMKPQSSIISLTYHASQKVVPGYGGGMSSAKAALESDTRVLAYHLGRNYNIRINTISAGPLKSRAATAINKLNNTYENNTNQNKNRNSHDVHNIMNNSGEKEEKKNSASQNYTFIDYAIEYSEKYAPLRQKLLSTDIGSVASFLLSRESRAITGQTIYVDNGLNIMFLPDDIYRNENE
[3]
  Km: 63 µM
